These results are taken from patent US12377080B2, “Allosteric EGFR inhibitors and methods of use thereof” (Dana-Farber Cancer Institute, Inc., priority 2019, dated 2025).

Assay [1] has as its system EGFR L858R/T790M mutant Ba/F3 Cells. As to the kind of experiment: Ba/F3 cell proliferation (Cell Titer Glo) in combination with cetuximab. Format: cell-based, murine. As to conditions: 72 hours. From the text: The EGFR mutant L858R, Del E746_A750, L858R/T790M, Del E746_A750/T790M, L858R/T790MIC797S, and DellT790MIC797S Ba/F3 cells have been previously described (Zhou, W., et al, Nature 462, 2009, 1070-1074). All cell lines were maintained in RPM I 1640 (Cellgro; Mediatech Inc., Herndon, CA) supplemented with 10% FBS, 100 units/mL penicillin, 100 units/mL streptomycin. The EGFR 1941 R mutation was introduced via site directed mutagenesis using the Quick Change Site-Directed Mutagenesis kit (Stratagene; La Jolla, CA) according to the manufacturer's instructions. All constructs were confirmed by DNA sequencing. The constructs were shuttled into the retroviral vector JP1540 using the Cre-recombination system (Agilent Technologies, Santa Clara, CA). Ba/F3 cells were then infected with retrovirus per standard protocols, as described previously (Zhou, et al, Nature 2009). Stable clones were obtained by selection in puromycin (2 μg/ml),
Growth and inhibition of growth was assessed by the Cell Titer Glo assay (Promega, Madison, WI) and was performed according to the manufacturer's instructions. The Cell Titer Glo assay is a luminescence-based method used to determine the number of viable cells based on quantitation of the ATP present, which is directly proportional to the amount of metabolically active cells present. Ba/F3 cells of different EGFR genotypes were exposed to compounds as a single agent or in combination with […] for 72 hours and the number of cells used per experiment was determined empirically as has been previously established (Zhou, et al., Nature 2009). All experimental points were set up in triplicates in 384-well plates and all experiments were repeated at least three times. […] The curves were fitted using a non-linear regression model with a sigmoidal dose response.
A general note: In ATP-based viability assays light output follows the ATP content of the culture.

The target of another assay is EGFR L858R/T790M (Homo sapiens (Human), UniProt P00533, L858R/T790M). Briefly: HTRF-based EGFR biochemical assay (L858R/T790M). As to conditions: 100 μM ATP. The protocol: (§1) EGFR biochemical activity measurements were carried out using the homogeneous time-resolved fluorescence (HTRF) assay (Cisbio). Inhibitors and DMSO normalizations were first dispensed to empty black low-volume 384-well plates (Corning) with D300 digital liquid dispenser (HP). All reactions were carried out at room temperature and solutions were added to plates with a Multidrop Combi Reagent Dispenser (ThermoFisher). The reaction mixture (10 μL final volume) contained 1 μM tyrosine kinase peptide-biotin substrate and mutant EGFR in a reaction buffer (50 mM HEPES pH 7,0, 5 mM MgCl2,1 mM MnCl2, 0.01% BSA, 2 mM TCEP, 0.1 mM NaVO4). Enzyme concentrations were adjusted to accommodate varying kinase activities (L858R 0.1 nM, L858R!T790M 0,02 nM). Enzyme reaction solution (2× concentrations, 5 μL) was added to 384-well plates containing compounds and incubated for 30 mins. Enzyme reactions were initiated with the addition of […] of ATP to a final concentration of 100 μM and reacted for 20 mins. Reactions were quenched with the addition of 10 μL of phospho-tyrosine antibody-Europium(III) cryptate (1-to-180 volume ratio) and Streptavidin-XL665 (46.7 nM) in EDTA-containing detection buffer, then incubated at room temperature for 1 hour, and read with a PHERAstar plate reader (excitation =337 nm, emission =620 nm and 665 nm).
On the technique in general: In TR-FRET formats the signal depends on donor and acceptor labels being close together.

Another assay has as its target EGFR L858R (Homo sapiens (Human), UniProt P00533, L858R). Briefly: HTRF-based EGFR biochemical assay (L858R). As to conditions: 100 μM ATP. The protocol: as §1

Chain of EGFR L858R (P00533 25-1210 L858R): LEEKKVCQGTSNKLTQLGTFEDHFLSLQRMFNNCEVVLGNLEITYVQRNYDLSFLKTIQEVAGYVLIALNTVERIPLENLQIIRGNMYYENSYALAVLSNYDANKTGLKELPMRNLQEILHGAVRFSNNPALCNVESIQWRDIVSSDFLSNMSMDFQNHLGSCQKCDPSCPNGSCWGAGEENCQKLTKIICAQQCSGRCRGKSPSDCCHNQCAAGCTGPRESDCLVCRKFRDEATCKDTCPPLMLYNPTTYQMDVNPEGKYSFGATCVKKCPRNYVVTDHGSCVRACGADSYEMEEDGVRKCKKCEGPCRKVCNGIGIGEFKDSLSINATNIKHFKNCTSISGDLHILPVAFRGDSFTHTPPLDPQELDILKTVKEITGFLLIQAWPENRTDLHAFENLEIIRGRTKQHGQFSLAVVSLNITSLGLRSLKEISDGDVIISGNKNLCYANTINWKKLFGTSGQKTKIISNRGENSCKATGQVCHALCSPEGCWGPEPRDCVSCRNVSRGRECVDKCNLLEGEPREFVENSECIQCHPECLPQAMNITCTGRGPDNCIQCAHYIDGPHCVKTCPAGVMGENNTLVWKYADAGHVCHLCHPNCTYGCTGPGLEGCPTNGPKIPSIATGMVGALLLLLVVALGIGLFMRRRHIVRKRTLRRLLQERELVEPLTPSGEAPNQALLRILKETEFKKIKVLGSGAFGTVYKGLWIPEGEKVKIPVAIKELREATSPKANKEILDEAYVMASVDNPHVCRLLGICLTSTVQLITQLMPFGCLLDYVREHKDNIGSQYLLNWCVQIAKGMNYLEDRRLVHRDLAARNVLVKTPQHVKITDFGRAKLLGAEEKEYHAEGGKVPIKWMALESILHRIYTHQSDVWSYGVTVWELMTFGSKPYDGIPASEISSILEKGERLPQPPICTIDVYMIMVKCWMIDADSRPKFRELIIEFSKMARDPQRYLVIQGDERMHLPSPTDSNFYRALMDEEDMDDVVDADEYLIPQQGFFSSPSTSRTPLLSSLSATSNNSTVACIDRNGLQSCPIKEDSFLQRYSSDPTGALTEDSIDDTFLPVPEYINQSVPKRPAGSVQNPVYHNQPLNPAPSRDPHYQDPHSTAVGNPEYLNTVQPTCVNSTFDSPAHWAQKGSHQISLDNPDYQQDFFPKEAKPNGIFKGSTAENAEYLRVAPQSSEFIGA
Chain of EGFR L858R/T790M (P00533 25-1210 T790M/L858R): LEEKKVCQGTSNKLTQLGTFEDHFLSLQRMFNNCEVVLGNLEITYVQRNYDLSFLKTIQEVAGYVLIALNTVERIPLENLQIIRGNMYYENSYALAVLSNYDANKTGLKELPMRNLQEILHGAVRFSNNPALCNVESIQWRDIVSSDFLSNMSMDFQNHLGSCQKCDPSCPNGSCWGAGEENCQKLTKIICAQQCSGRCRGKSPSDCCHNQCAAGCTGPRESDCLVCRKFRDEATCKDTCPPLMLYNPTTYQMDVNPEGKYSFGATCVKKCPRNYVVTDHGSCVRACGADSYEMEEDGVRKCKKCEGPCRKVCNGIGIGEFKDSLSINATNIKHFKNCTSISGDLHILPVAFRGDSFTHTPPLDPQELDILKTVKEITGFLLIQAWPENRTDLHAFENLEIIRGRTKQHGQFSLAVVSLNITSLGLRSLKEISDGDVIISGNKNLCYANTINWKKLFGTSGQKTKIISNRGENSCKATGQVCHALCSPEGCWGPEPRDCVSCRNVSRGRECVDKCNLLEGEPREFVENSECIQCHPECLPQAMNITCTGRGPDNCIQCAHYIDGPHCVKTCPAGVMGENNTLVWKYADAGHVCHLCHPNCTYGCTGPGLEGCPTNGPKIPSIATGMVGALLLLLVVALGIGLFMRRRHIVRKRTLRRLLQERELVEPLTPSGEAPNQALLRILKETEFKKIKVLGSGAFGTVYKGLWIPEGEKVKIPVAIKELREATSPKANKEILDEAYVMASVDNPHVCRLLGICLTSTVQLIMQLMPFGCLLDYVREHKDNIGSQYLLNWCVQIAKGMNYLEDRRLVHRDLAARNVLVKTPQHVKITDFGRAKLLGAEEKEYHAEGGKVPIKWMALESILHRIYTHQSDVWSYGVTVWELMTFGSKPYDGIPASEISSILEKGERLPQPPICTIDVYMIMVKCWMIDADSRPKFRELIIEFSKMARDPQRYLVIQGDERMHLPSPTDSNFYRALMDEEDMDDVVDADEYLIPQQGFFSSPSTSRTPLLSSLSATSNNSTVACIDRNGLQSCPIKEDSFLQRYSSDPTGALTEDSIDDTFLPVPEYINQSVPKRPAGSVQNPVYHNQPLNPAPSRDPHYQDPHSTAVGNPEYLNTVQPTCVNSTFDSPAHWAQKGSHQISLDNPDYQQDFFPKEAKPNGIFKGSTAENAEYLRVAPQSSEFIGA

In the case of `CN1CCC(c2ccc(-c3ccc4c(n3)C(=O)N(C(C(=O)Nc3nccs3)c3cccc(F)c3)C4)cn2)CC1` (centres unmarked) [Compound 17, 2-(3-fluorophenyl)-2-(2-(6-(1-methylpiperidin-4-yl)pyridin-3-yl)-7-oxo-5,7-dihydro-6H-pyrrolo[3,4-b]pyridin-6-yl)-N-(thiazol-2-yl)acetamide], the IC50 in assay [1] turned out to be 140 nM; against EGFR L858R/T790M it was 7 nM; on EGFR L858R, 0.036 µM.
In the case of `CN1CCN(c2ccc(-c3cnc4c(c3)C(=O)N(C(C(=O)Nc3ccccn3)c3cccc(F)c3)C4)cn2)CC1` (centres unmarked) [Compound 12, 2-(3-fluorophenyl)-2-(3-(6-(4-methylpiperazin-1-yl)pyridin-3-yl)-5-oxo-5,7-dihydro-6H-pyrrolo[3,4-b]pyridin-6-yl)-N-(pyridin-2-yl)acetamide], the half-inhibitory concentration (IC50) in assay [1] was 1910 nM; against EGFR L858R/T790M, 41 nM; against EGFR L858R (cells printed in μM), greater than 1 µM.
Turning to `O=C(Nc1ccccn1)C(c1cccc(F)c1)N1Cc2ccc(Br)nc2C1=O` (centres unmarked) [Compound 5, 2-(2-bromo-7-oxo-5,7-dihydro-6H-pyrrolo[3,4-b]pyridin-6-yl)-2-(3-fluorophenyl)-N-(pyridin-2-yl)acetamide], in assay [1], the IC50 was greater than 10000 nM.
For `CN1CCC(c2ccc(-c3ccc4c(n3)C(=O)N(C(C(=O)Nc3nccs3)c3cccc(F)c3)C4)c(F)c2)CC1` (centres unmarked) [Compound 19, 2-(2-(2-fluoro-4-(1-methyl-piperidin-4-yl)phenyl)-7-oxo-5,7-dihydro-6H-pyrrolo[3,4-b]pyridin-6-yl)-2-(3-fluoro-phenyl)-N-(thiazol-2-yl)-acetamide], the values for the half-maximal inhibitory concentration (IC50) (in assay [1]; against EGFR L858R/T790M; against EGFR L858R) were 30 nM, 0.7 nM and 0.004 µM, respectively.
Consider `CN1CCC(c2ccc(-c3cnc4c(c3)C(=O)N(C(C(=O)Nc3nccs3)c3cccc(F)c3)C4)cc2)CC1` (centres unmarked) [Compound 9, 2-(3-fluorophenyl)-2-(3-(4-(1-methylpiperidin-4-yl)phenyl)-5-oxo-5,7-dihydro-6H-pyrrolo-[3,4-b]pyridin-6-yl)-N-(thiazol-2-yl)acetamide], for which the values for the IC50 (in assay [1]; against EGFR L858R/T790M; at EGFR L858R) were 10 nM, 1 nM and 0.005 µM, respectively.
With `CN1CCN(c2ccc(-c3ccc4c(n3)C(=O)N(C(C(=O)Nc3nccs3)c3cccc(F)c3)C4)cn2)CC1` (centres unmarked) [Compound 15, 2-(3-fluorophenyl)-2-(2-(6-(4-methylpiperazin-1-yl)pyridin-3-yl)-7-oxo-5,7-dihydro-6H-pyrrolo[3,4-b]pyridin-6-yl)-N-(thiazol-2-yl)acetamide], the IC50 in assay [1] came out at 330 nM; at EGFR L858R/T790M it was 6 nM; on EGFR L858R, 0.083 µM.
`CN1CCC(c2ccc(-c3ccc4c(n3)C(=O)N(C(C(=O)Nc3nccs3)c3cccc(F)c3)C4)cc2F)CC1` (centres unmarked) [Compound 20, 2-(2-(3-fluoro-4-(1-methyl-piperidin-4-yl)phenyl)-7-oxo-5,7-dihydro-6H-pyrrolo[3,4-b]pyridin-6-yl)-2-(3-fluoro-phenyl)-N-(thiazol-2-yl)-acetamide]: the IC50 in assay [1] was determined as 20 nM; at EGFR L858R/T790M it was 1 nM; against EGFR L858R, 0.005 µM.
Take `O=C(Nc1ccccn1)C(c1cccc(F)c1)N1Cc2ncc(Br)cc2C1=O` (centres unmarked) [Compound 3, 2-(3-bromo-5-oxo-5,7-dihydro-6H-pyrrolo[3,4-b]pyridin-6-yl)-2-(3-fluorophenyl)-N-(pyridin-2-yl)acetamide]: the concentration for half-maximal inhibition (IC50) in assay [1] was determined as 2370 nM.
In the case of `CN1CCC(c2ccc(-c3cc4c(cn3)CN(C(C(=O)Nc3nccs3)c3cccc(F)c3)C4=O)cc2)CC1` (centres unmarked) [Compound 6, 2-(3-fluorophenyl)-2-(6-(4-(1-methylpiperidin-4-yl)phenyl)-1-oxo-1,3-dihydro-2H-pyrrolo-[3,4-c]pyridin-2-yl)-N-(thiazol-2-yl)acetamide], the half-maximal inhibitory concentration (IC50) in assay [1] amounted to 130 nM; on EGFR L858R/T790M, 6 nM; at EGFR L858R, 0.06 µM.
On to `O=C(Nc1nccs1)C(c1cccc(F)c1)N1Cc2ccc(Br)nc2C1=O` (centres unmarked) [Compound 4, 2-(2-bromo-7-oxo-5,7-dihydro-6H-pyrrolo[3,4-b]pyridin-6-yl)-2-(3-fluorophenyl)-N-(thiazol-2-yl)acetamide], for which, in assay [1], the 50% inhibitory concentration (IC50) is 1760 nM.
`CN1CCC(c2ccc(-c3ccc4c(n3)C(=O)N(C(C(=O)Nc3ccccn3)c3cc(F)ccc3O)C4)cc2)CC1` (centres unmarked) [Compound 21, 2-(5-fluoro-2-hydroxyphenyl)-2-(2-(4-(1-methylpiperidin-4-yl)phenyl)-7-oxo-5,7-dihydro-6H-pyrrolo[3,4-b]pyridin-6-yl)-N-(pyridin-2-yl)acetamide]: the values for the IC50 (in assay [1]; at EGFR L858R/T790M; against EGFR L858R) were 10 nM, 0.4 nM and 0.004 µM, respectively.
`CN1CCN(c2ccc(-c3cnc4c(c3)C(=O)N(C(C(=O)Nc3nccs3)c3cccc(F)c3)C4)cn2)CC1` (centres unmarked) [Compound 8, 2-(3-fluorophenyl)-2-(3-(6-(4-methylpiperazin-1-yl)pyridin-3-yl)-5-oxo-5,7-dihydro-6H-pyrrolo[3,4-b]pyridin-6-yl)-N-(thiazol-2-yl)acetamide]: the IC50 worked out at 200 nM in assay [1], 1 nM against EGFR L858R/T790M and 0.02 µM on EGFR L858R.
On to `CN1CCN(c2ccc(-c3cc4c(cn3)CN(C(C(=O)Nc3nccs3)c3cccc(F)c3)C4=O)cc2)CC1` (centres unmarked) [Compound 7, 2-(3-fluorophenyl)-2-(6-(4-(4-methylpiperazin-1-yl)phenyl)-1-oxo-1,3-dihydro-2H-pyrrolo-[3,4-c]pyridin-2-yl)-N-(thiazol-2-yl)acetamide], for which the IC50 in assay [1] stood at 480 nM; against EGFR L858R/T790M it was 10 nM; on EGFR L858R, 0.301 µM.
Consider `O=C(Nc1nccs1)C(c1cccc(F)c1)N1Cc2ncc(Br)cc2C1=O` (centres unmarked) [Compound 2, 2-(3-bromo-5-oxo-5,7-dihydro-6H-pyrrolo[3,4-b]pyridin-6-yl)-2-(3-fluorophenyl)-N-(thiazol-2-yl)acetamide], for which the IC50 in assay [1] is 380 nM.
For `CN1CCC(c2ccc(-c3cnc4c(c3)C(=O)N(C(C(=O)Nc3nccs3)c3cccc(F)c3)C4)cn2)CC1` (centres unmarked) [Compound 18, 2-(3-fluorophenyl)-2-(3-(6-(1-methylpiperidin-4-yl)pyridin-3-yl)-5-oxo-5,7-dihydro-6H-pyrrolo[3,4-b]pyridin-6-yl)-N-(thiazol-2-yl)acetamide], the figures for the IC50 (in assay [1]; against EGFR L858R/T790M; against EGFR L858R) were 220 nM, 9 nM and 0.126 µM, respectively.
Regarding `CN1CCC(c2ccc(-c3ccc4c(n3)C(=O)N(C(C(=O)Nc3nccs3)c3cccc(F)c3)C4)cc2)CC1` (centres unmarked) [Compound 13, 2-(3-fluorophenyl)-2-(2-(4-(1-methylpiperidin-4-yl)phenyl)-7-oxo-5,7-dihydro-6H-pyrrolo-[3,4-b]pyridin-6-yl)-N-(thiazol-2-yl)acetamide], the concentration for half-maximal inhibition (IC50) in assay [1] was determined as 20 nM; on EGFR L858R/T790M it was 1 nM; at EGFR L858R it was 0.007 µM.
Consider `O=C(Nc1nccs1)C(c1cccc(F)c1)N1Cc2cnc(Br)cc2C1=O` (centres unmarked) [Compound 1, 2-(6-bromo-1-oxo-1,3-dihydro-2H-pyrrolo[3,4-c]pyridin-2-yl)-2-(3-fluorophenyl)-N-(thiazol-2-yl)acetamide], for which the half-inhibitory concentration (IC50) in assay [1] worked out at 5480 nM.
Take `CN1CCC(c2ccc(-c3cnc4c(c3)C(=O)N(C(C(=O)Nc3ccccn3)c3cc(F)ccc3O)C4)cc2)CC1` (centres unmarked) [Compound 22, 2-(5-fluoro-2-hydroxyphenyl)-2-(3-(4-(1-methylpiperidin-4-yl)phenyl)-5-oxo-5,7-dihydro-6H-pyrrolo[3,4-b]pyridin-6-yl)-N-(pyridin-2-yl)acetamide]: the IC50 in assay [1] was 30 nM; against EGFR L858R/T790M, 1 nM; at EGFR L858R, 0.005 µM.
Regarding `CN1CCN(c2ccc(-c3cnc4c(c3)C(=O)N(C(C(=O)Nc3nccs3)c3cccc(F)c3)C4)cc2)CC1` (centres unmarked) [Compound 10, 2-(3-fluorophenyl)-2-(3-(4-(4-methylpiperazin-1-yl)phenyl)-5-oxo-5,7-dihydro-6H-pyrrolo-[3,4-b]pyridin-6-yl)-N-(thiazol-2-yl)acetamide], the IC50 is 100 nM in assay [1], 4 nM against EGFR L858R/T790M and 0.046 µM against EGFR L858R.

One may read the IC50 as the point on the concentration scale where inhibition reaches its midpoint.
